This note sets out measurements from paper PMC7411887, “New Paracyclophanylthiazoles with Anti-Leukemia Activity: Design, Synthesis, Molecular Docking, and Mechanistic Studies” (Molecules, 2020).

The test system of series [1] is HL-60(TB). Put plainly: NCI single-dose screen (SRB). The series is classed as cell-based. To be noted: Homo sapiens; Leukemia HL-60(TB); 10^−5 M; read-out: Growth inhibition percentage. On the procedure: The methodology of the NCI anticancer screening was described in detail elsewhere (http://www.dtp.nci.nih.gov). […] Tested compounds were added to the culture at a single concentration (10^−5 M) and the cultures were incubated for 48 h. End-point determinations were made with a protein binding dye, SRB. Results for each tested compound were reported as the percentage growth of the treated cells when compared to the untreated control cells. The percentage growth was evaluated spectrophotometrically versus controls not treated with test agents. All experiments were repeated three times (Table 1).
Briefly, the protocol was performed on 60 human tumor cell lines derived from different nine neoplastic diseases. […] If the results obtained met selection criteria, then the compound was tested again on all 60 cell lines in 5× 10-fold dilutions with the top dose being 10^−4 M or 150 μg/mL. Detailed methods are described in the Supplementary Materials related to this article. […]
on their site (http://www.dtp.nci.nih.gov). But briefly, the protocol performed at sixty human […]
National Cancer Institute, Bethesda, USA. If the results obtained meet selection criteria, then the […]
10-4 molar or 150 μg/mL. Detailed methods are described in supplementary material related to […]
2. MTT- Cytotoxicity assay method […]
should not exceed 10^6 cells/cm2. Each test should include a blank containing complete medium […]
salt solution without phenol red and serum. Add reconstituted MTT in an amount equal to 10% of the culture medium volume.

The target in series [2] is T1, β-tubulin (Homo sapiens, UniProt P07437).
T1 construct: endogenous in cells; host or cells: leukemia SR cell line
Put plainly: Tubulin polymerization inhibition (ELISA for TUBb, SR cell line). The series is classed as cell-based. To be noted: IC50 ± SEM. On the procedure: The in vitro kinetics of microtubule assembly was measured using an ELISA kit for TUBb (Cloud-Clone. Corp.) on the leukemia SR cell line. The compounds tested were 3a–f and colchicine. Briefly, growing cells from the SR cell line were trypsinized, counted, and seeded at the appropriate densities into 96-well microtiter plates.
4. Tubulin polymerization inhibitory activity […]
bind the biotin labeled antibody. […]
spectrophotometrically at a wavelength of 450 nm ± 10 nm. The decrease of color intensity was measured as a sign for tubulin inhibition. The results were calculated as the concentration of TUBb available for antibody reaction, and the percent inhibition of TUBb was calculated for each sample as a percent of control. In vitro kinetics of microtubule assembly was measured using ELISA kit for TUBb (Cloud-Clone. Corp.) on SR cell line. Briefly, growing cells from Leukemia SR cell lines were trypsinized, counted and seeded at the appropriate densities into 96-well microtiter plates. Cells then were incubated in a humidified atmosphere at oC for 24 h. The standards, the tested compounds, and the control colchicine were diluted to designated concentrations. On the 96-well microtiter plates standard or sample was added to each well in […] and incubated at oC for 2 h. The solution was aspirated, and […] of prepared detection reagent A was added to each well. Incubation was done at oC for 2 h. After washing […] of prepared Detection Reagent B was added and incubation was continued at oC for 30 min. Five washings were done, then […] of 3,30,5,50-tetramethylbenzidine (TMB) substrate solution was added and incubated at oC for 15-25 min. Stop solution was added in […].
Optical density (O.D.) was measured at 450 nm using micro-plate reader (Spectromax Plus 96 well plate spectrophotometer). […]
the treated cells compared to that of the untreated control cells.
5. Multidrug resistance Assay
Before adding to wells, equilibrate the SABC working solution and TMB substrate for at least 30 […]
When diluting samples and reagents, they must be mixed completely and evenly. It is recommended plotting a standard curve for each test.
On the technique in general: ELISA stands for enzyme-linked immunosorbent assay.

The subject of series [3] is leukemia SR. Description: MTT antiproliferative assay. To be noted: Homo sapiens, read-out: Cytotoxicity IC50 L.SR. A general note: Formazan colour is commonly taken as a measure of viable cells.
In series [4] the test system is Bcl-2. Put plainly: Bcl-2 assay on leukemia SR cell line. To be noted: for Bcl2 Concentration: ± SD. Format: cell-based, human. On the procedure:
(§1) 17. Empty the contents of the wells and wash by adding 400 μL of wash solution to every
(§2) 18. Repeat the wash 4 more times for a total of 5 washes.
(§3) 19. After the final wash, empty or aspirate the wells and firmly tap the plate on a lint free
paper towel to remove any remaining wash buffer.
(§4) 20. Pipet 100 μL of Substrate Solution into each well.
(§5) 21. Incubate for 30 minutes at room temperature on a plate shaker at ~500 rpm.
(§6) 1. Mix all reagents thoroughly without foaming before use.
(§7) 3. Take caution not to scratch the surface of the microwells.
5. Use the microwell strips immediately after washing or place upside down on a wet
absorbent paper for not longer than 15 minutes.
(§8) Prepare standard (1:2 dilution) in duplicate ranging from 32
8. Add 50 μL of diluted biotin-conjugate to all wells, including the blank wells.
10. Remove plate cover and empty the wells.
13. Remove plate cover and empty the wells.
Proceed to the next step.
available on a rotator set at 100 rpm. Avoid direct exposure to intense light.

For series [5], the system named is BAX. Put plainly: BAX assay on leukemia SR cell line. The series is classed as cell-based, human. To be noted: for BAX Concentration: ± SD. The procedure: 19. Read the concentrations for unknown samples and controls from the standard curve.
All standards, controls and samples should be run in duplicate. […]
desiccant back into the pouch and seal the ziploc. Store unused wells at 4 °C.
4. Pipet 100 μL of the Samples into the appropriate wells.
7. Empty the contents of the wells and wash by adding 400 μL of wash solution to every well.
8. Repeat the wash 4 more times for a total of 5 washes.
9. After the final wash, empty or aspirate the wells and firmly tap the plate on a lint free paper towel to remove any remaining wash buffer.
10. Pipet 100 μL of yellow Antibody into each well, except the Blank.
12. Empty the contents of the wells and wash by adding 400 μL of wash solution to every
13. Repeat the wash 4 more times for a total of 5 washes.
14. After the final wash, empty or aspirate the wells and firmly tap the plate on a lint free
as §1, §2, §3, §4, §5, §6, §7
5. Use the microwell strips immediately after washing or place upside down on a wet absorbent paper for not longer than 15 minutes.
as §8

Structures are written as SMILES. Several values for one entry are separate records, joined by “and”; a condition that tells them apart may be missing. Identical values can stand only once.

The term melting point denotes the temperature of the solid-liquid transition. In general, inhibition refers to the drop in the measured response relative to a control, in per cent. As usually defined, the IC50 is the concentration that inhibits the measured activity by half.

T1 sequence (P07437 whole entry): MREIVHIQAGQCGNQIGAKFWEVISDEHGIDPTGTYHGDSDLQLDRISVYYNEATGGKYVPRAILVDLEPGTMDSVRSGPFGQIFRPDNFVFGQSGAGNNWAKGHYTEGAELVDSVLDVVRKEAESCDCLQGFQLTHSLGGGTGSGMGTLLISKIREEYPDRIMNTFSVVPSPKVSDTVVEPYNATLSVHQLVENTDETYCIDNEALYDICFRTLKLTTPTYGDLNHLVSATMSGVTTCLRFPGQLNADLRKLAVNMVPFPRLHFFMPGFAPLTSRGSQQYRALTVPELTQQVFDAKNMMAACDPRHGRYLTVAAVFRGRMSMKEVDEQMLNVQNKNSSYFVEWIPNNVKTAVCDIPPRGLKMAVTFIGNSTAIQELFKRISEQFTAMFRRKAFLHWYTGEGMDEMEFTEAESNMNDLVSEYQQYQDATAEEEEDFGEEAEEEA
T1 sequence (P68363 whole entry partner): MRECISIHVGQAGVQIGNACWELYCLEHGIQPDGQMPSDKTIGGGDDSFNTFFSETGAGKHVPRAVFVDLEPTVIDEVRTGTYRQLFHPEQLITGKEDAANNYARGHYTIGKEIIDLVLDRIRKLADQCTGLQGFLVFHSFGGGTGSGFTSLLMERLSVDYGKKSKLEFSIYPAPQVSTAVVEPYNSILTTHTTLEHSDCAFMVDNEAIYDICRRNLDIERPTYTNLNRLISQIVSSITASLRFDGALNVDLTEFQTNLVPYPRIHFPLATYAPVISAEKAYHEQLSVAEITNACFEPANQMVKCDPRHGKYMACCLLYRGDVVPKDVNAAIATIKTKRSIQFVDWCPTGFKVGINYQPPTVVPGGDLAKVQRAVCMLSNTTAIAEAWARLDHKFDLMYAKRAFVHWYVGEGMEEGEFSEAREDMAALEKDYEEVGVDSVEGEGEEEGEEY

`COC(=O)/C=C1/S/C(=N/NC(=O)c2cc3ccc2CCc2ccc(cc2)CC3)N(C2CC2)C1=O` [Compound 3f] had a melting point of 180 to 182 °C. In series [1], the inhibition at 10 µM is 26.4%.

For `COC(=O)C=C1SC(=Nc2cccnc2)N(NC(=O)c2cc3ccc2CCc2ccc(cc2)CC3)C1=O` [Compound 3c, Methyl (E)-2-((E)-3-[2.2]paracyclophanyl)amido-4-oxo-2-(pyridin-3-ylimino)-thiazolidin-5-ylidene)acetate], the melting point was 262 to 264 °C (dec.). Moreover, the IC50 in series [2] was 8.38 µM and 8.28 µM. The IC50 in series [3] amounted to 4.84 ± 0.0843 µM. Also, the inhibition at 10 µM in series [1] was found to be 48.6%.

The molecule `C=CCN1C(=O)C(=CC(=O)OC)SC1=NNC(=O)c1cc2ccc1CCc1ccc(cc1)CC2` [Compound 3d] returned a melting point of 241 to 243 °C. In series [2], the midpoint of inhibition, the IC50, lay at 14.8 ± 0.32 µM. In addition, the IC50 in series [3] worked out at 22.06 ± 0.0679 µM. In series [1], the inhibition at 10 µM is 8.16%.

Consider `CCN1C(=O)C(=CC(=O)OC)SC1=NNC(=O)c1cc2ccc1CCc1ccc(cc1)CC2` [Compound 3e], for which the melting point lay in the range of 220 to 222 °C. In series [2], this molecule displayed an IC50 of 6.61 ± 0.14 µM. In addition, the IC50 in series [3] is 5.04 ± 0.0791 µM. Further, the inhibition at 10 µM in series [1] was found to be 11.6%.

As for `COC(=O)C=C1SC(=NNC(=O)c2cc3ccc2CCc2ccc(cc2)CC3)N(Cc2ccccc2)C1=O` [Compound 3b], the melting point fell in the range of 175 to 177 °C. The same molecule had a 50% inhibitory concentration (IC50) in series [2] of 8.38 ± 0.18 µM. The half-maximal inhibitory concentration (IC50) in series [3] is 2.02 ± 0.0688 µM. For the same molecule, in series [1], the inhibition at 10 µM turned out to be 105%.

Regarding `COc1cc2c(c(OC)c1OC)-c1ccc(OC)c(=O)cc1[C@@H](NC(C)=O)CC2` [Colchicine, colchicine, reference compound], the “Bcl2 Concentration” value in series [4] is recorded as 4.101 ± 0.1441 ng/mL. In addition, in series [3], the IC50 turned out to be 1.81 ± 0.0701 µM. Moreover, the “BAX Concentration” value in series [5] is given as 341.8 ± 4.310 pg/mL.

As to `COC(=O)C=C1SC(=NNC(=O)c2cc3ccc2CCc2ccc(cc2)CC3)N(c2ccccc2)C1=O` [Compound 3a], the figures for the IC50 in series [2] and in series [3] were 4.97 ± 0.11 µM and 1.11 ± 0.0685 µM, respectively. The “Bcl2 Fold Change” value in series [4] (relative to control) came to 0.59 fold. Also, the “Bcl2 Concentration” value in series [4] is reported as 5.045 ± 0.1918 ng/mL. For the same molecule, in series [5] (relative to control), the “BAX Fold Change” value was around 7.98 fold. In series [5], the “BAX Concentration” value worked out at 359 ± 3.830 pg/mL. Also, the inhibition at 10 µM in series [1] turned out to be 83.6%.
